Assay results: patent publication US20220259593A1, “CONTROL OF MAMMALIAN GENE DOSAGE USING CRISPR” (The Regents of the University of California, priority 2019, published 2022)

Experiments:
[1] = test system: K562 CRISPRi cells; assay: Perturb-seq pooled growth measurement (sgRNA counts, growth phenotype γ, relative activity); type: cell-based, human; conditions: for gamma_day5 / gamma_day10: pooled growth phenotype γ of the Perturb-seq sgRNA; for gamma_day5: day 5, K562 CRISPRi cells; for gamma_day10: day 10, K562 CRISPRi cells; for relative_activity_day5: γ relative to perfectly matched sgRNA (_00) of the same gene, day 5
How it was run: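 CRISPRi K562 cells from the Perturb-seq transduced pool; 500,000-cell samples taken days two, seven and twelve post-transduction. sgRNA amplicons from genomic DNA sequenced; growth phenotypes from normalized sgRNA abundances at days seven and twelve versus day two. Relative activity assigned from day seven (five days' growth).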

[2] = test system: K562 CRISPRi cells; assay: as above; type: cell-based, human; conditions: γ relative to perfectly matched sgRNA (_00) of the same gene, day 10

Row | Substance | gamma_day5 [1] | gamma_day10 [1] | relative_activity_day5 [1] | relative_activity_day10 [2]
1 | DUT_ + _48624411.23-P1P2_01 (guide GCCAGCGAGGAGACCACCGG; listed as DNA, chemistry not fully specified) | −0.7924 | −0.6032 | 0.9993 | 0.9341
2 | DUT_ + _48624411.23-P1P2_07 (guide GCGAGCGAGGAGCCCACCGG; listed as DNA, chemistry not fully specified) | −0.7197 | −0.4998 | 0.9077 | 0.774
3 | DUT_ + _48624411.23-P1P2_08 (guide GCGAGCGAGGAGGCCACCGG; listed as DNA, chemistry not fully specified) | −0.7725 | −0.5862 | 0.9742 | 0.9077
4 | DUT_ + _48624411.23-P1P2_10 (guide GCGAGCGAGGAGACCAACGG; listed as DNA, chemistry not fully specified) | −0.3864 | −0.3196 | 0.4873 | 0.4949
5 | EIF2S1_ −_67827080.23-P1P2_00 (guide GAGCGAAGCGCACGCTGAGG; listed as DNA, chemistry not fully specified) | −0.9047 | −0.5155 | 1 | 1
6 | EIF2S1_ −_67827080.23-P1P2_01 (guide GAGCGAAACGCACGCTGAGG; listed as DNA, chemistry not fully specified) | −0.4467 | −0.3032 | 0.4937 | 0.5881
7 | EIF2S1_ −_67827080.23-P1P2_02 (guide GAGCGCAGCGCACGCTGAGG; listed as DNA, chemistry not fully specified) | −0.7288 | −0.4556 | 0.8055 | 0.8838
8 | EIF2S1_ −_67827080.23-P1P2_06 (guide GAGCGAAGCGCGCGCTGAGG; listed as DNA, chemistry not fully specified) | −0.6688 | −0.3635 | 0.7393 | 0.7051
9 | EIF2S1_ −_67827080.23-P1P2_07 (guide GAGCGAAGCGCTCGCTGAGG; listed as DNA, chemistry not fully specified) | −0.08307 | −0.04004 | 0.09182 | 0.07767
10 | GATA1 −_48645022.23-P1P2_12 (guide GTGAGCTTGCCACATCCGCA; listed as DNA, chemistry not fully specified) | −0.1084 | −0.06327 | 0.1126 | 0.1028
11 | GATA1_ −_48645022.23-P1P2_00 (guide GTGAGCTTGCCACATCCCCA; listed as DNA, chemistry not fully specified) | −0.9627 | −0.6153 | 1 | 1
12 | GATA1_ −_48645022.23-P1P2_03 (guide GTGCGCTTGCCACATCCCCA; listed as DNA, chemistry not fully specified) | −0.9855 | −0.6259 | 1.024 | 1.017
13 | GATA1_ −_48645022.23-P1P2_04 (guide GTGAGCTTACCACATCCCCA; listed as DNA, chemistry not fully specified) | −0.9313 | −0.6032 | 0.9673 | 0.9804
14 | GATA1_ −_48645022.23-P1P2_06 (guide GTGAGCTTGCGACATCCCCA; listed as DNA, chemistry not fully specified) | −0.5073 | −0.3486 | 0.5269 | 0.5666
15 | GATA1_ −_48645022.23-P1P2_08 (guide GTGAGCTTTCCACATCCCCA; listed as DNA, chemistry not fully specified) | −0.7632 | −0.4893 | 0.7928 | 0.7953
16 | GINS1_ −_25388381.23-P1P2_00 (guide GGACTAGAACGAAAGGAGTG; listed as DNA, chemistry not fully specified) | −0.9993 | −0.7125 | 1 | 1
17 | GINS1_ −_25388381.23-P1P2_03 (guide GGACTATAACGAAAGGAGTG; listed as DNA, chemistry not fully specified) | −0.7467 | −0.4797 | 0.7472 | 0.6733

Row | Substance | gamma_day5 [1] | gamma_day10 [1] | relative_activity_day5 [1] | relative_activity_day10 [2]
18 | GINS1_ −_25388381.23-P1P2_06 (guide GGACTAGAACGGAAGGAGTG; listed as DNA, chemistry not fully specified) | −0.9794 | −0.6548 | 0.9801 | 0.9191
19 | GINS1_ −_25388381.23-P1P2_08 (guide GGACTAGAGCGAAAGGAGTG; listed as DNA, chemistry not fully specified) | −1.039 | −0.6723 | 1.039 | 0.9436
20 | GINS1_ −_25388381.23-P1P2_14 (guide GGACTAGAACGAAAGGAGCG; listed as DNA, chemistry not fully specified) | −0.3535 | −0.2609 | 0.3537 | 0.3662
21 | GNB2L1_ + _180670873.23-P1P2_00 (guide GTGCAAGGCGGCGGCAGGAG; listed as DNA, chemistry not fully specified) | −0.2908 | −0.3054 | 1 | 1
22 | GNB2L1_ + _180670873.23-P1P2_02 (guide GTGCAAGACGGCGGCAGGAG; listed as DNA, chemistry not fully specified) | −0.1438 | −0.1273 | 0.4945 | 0.4167
23 | GNB2L1_ + _180670873.23-P1P2_07 (guide GTGCAAGGCGGGGGCAGGAG; listed as DNA, chemistry not fully specified) | −0.38 | −0.2733 | 1.307 | 0.8948
24 | GNB2L1_ + _180670873.23-P1P2_08 (guide GTGCAAGGTGGCGGCAGGAG; listed as DNA, chemistry not fully specified) | −0.3061 | −0.3155 | 1.052 | 1.033
25 | GNB2L1_ + _180670873.23-P1P2_13 (guide GTGCAAGGCGGCGGCGGGAG; listed as DNA, chemistry not fully specified) | −0.2097 | −0.2074 | 0.7211 | 0.6791
26 | HSPA5_ + _128003624.23-P1P2_00 (guide GAGCCGAGTAGGCGACGGTG; listed as DNA, chemistry not fully specified) | −0.7476 | −0.4272 | 1 | 1
27 | HSPA5_ + _128003624.23-P1P2_01 (guide GAACCGAGTAGGCGACGGTG; listed as DNA, chemistry not fully specified) | −0.6373 | −0.3748 | 0.8525 | 0.8774
28 | HSPA5_ + _128003624.23-P1P2_04 (guide GAGCCGAGAAGGCGACGGTG; listed as DNA, chemistry not fully specified) | −0.7544 | −0.4225 | 1.009 | 0.989
29 | HSPA5_ + _128003624.23-P1P2_06 (guide GAGCCGAGTAGACGACGGTG; listed as DNA, chemistry not fully specified) | −0.1192 | −0.09835 | 0.1594 | 0.2302
30 | HSPA5_ + _128003624.23-P1P2_08 (guide GAGCCGAGTGGGCGACGGTG; listed as DNA, chemistry not fully specified) | −0.7566 | −0.4435 | 1.012 | 1.038
31 | HSPA9_ −_137911079.23-P1P2_00 (guide GGAGCTGCGCGATGCGGTGG; listed as DNA, chemistry not fully specified) | −0.95 | −0.5892 | 1 | 1
32 | HSPA9_ −_137911079.23-P1P2_02 (guide GGAGTTGCGCGATGCGGTGG; listed as DNA, chemistry not fully specified) | −0.6504 | −0.4027 | 0.6846 | 0.6835
33 | HSPA9_ −_137911079.23-P1P2_04 (guide GGAGCTGCGCAATGCGGTGG; listed as DNA, chemistry not fully specified) | −0.2005 | −0.1657 | 0.211 | 0.2813
